{"source": "patent US8735374B2", "about": "“Oral mucoadhesive dosage form” (Intelgenx Corp., priority 2009, dated 2014)", "origin": "cited, not measured here", "conditions": "oral administration; first pass hepatic metabolism, high lipid solubility", "note": "Where “and” joins values, the source holds several entries; their conditions need not be identical. Equal values may be shown once.", "data": [{"smiles": "CCCCCc1cc(O)c2c(c1)OC(C)(C)[C@@H]1CCC(C)=C[C@@H]21", "note": "[THC, Δ^9-tetrahydrocannabinol]", "values": [{"measurement": "portion of an administered dose that reaches systemic circulation", "result": "10 to 20% and 10-20%"}]}]}
